# According to US10376577B2, “Refined product obtained from rice hull and preparation process and use thereof” (China Medical University, priority 2014, dated 2019):
# System: CT26 cells
# Experiment: Synergistic anticancer effect of refined product and 5-FU on colon carcinoma cells
# Type: in vivo, mouse
# Details: BALB/c mice with subcutaneous CT26, end of 3rd week, treatments per Table 8, mean ± S.D.
# Description: The male BALB/c mice were randomly divided into the following groups (n=8 for each group): a normal control group, a pathological control group, a 5-FU group, and a synergy group. 1×10^6 CT26 cells were subcutaneously injected into the leg of each mouse in the pathological control group, the 5-FU group, and the synergy group. The mice in the normal control group received no CT26 cells.
# After the injection of CT26 cells, the mice in the 5-FU group, the synergy group, and the pathological control group were subjected to the treatments shown in Table 8 until the end of the 3rd week after the injection of CT26 cells. The mice in the normal control group received no treatment.
# At the end of the 3rd week after the injection of CT26 cells, the mice in each group were anesthetized using CO2, and blood was collected from the celiac vein. The blood collected was subjected to total white blood cell counting using an automated hematology analyzer (Sysmex, KX-21 N). Besides, tumors were collected and weighted.
structure (smiles),measurement,setting,value
"O=c1[nH]cc(F)c(=O)[nH]1 [5-FU, 5-fluorouracil]",Tumor weight,pathological control 4.10 ± 0.92,3.19 ± 1.47
same,Number of total white blood cells,pathological control 6.59 ± 1.46,4.46 ± 0.77
